Experimental data from patent US20100286255A1, “METHOD FOR EXTRACTING SECOISOLARICIRESINOL AND DIHYDROQUERCETIN FROM WOOD” (priority 2007, published 2010).

Tests used:
MCF-7 cells = assay: Proliferation of human breast cancer cells MCF-7 (estrogenic and antiestrogenic activity); type: cell-based; details: ethanol test = 100
Method: The comparative study of the proliferation of the human breast cancer cells MCF-7 under the action of estradiol, SECO, and SECO-containing extracts was carried out according to a known method (H. Adlercreutz, Y. Mousavi, “Enterolactone and estradiol inhibit each other's proliferative effect on MCF-7 breast cancer cells in culture,” J. Steroid. Biochem. Mol. Biol. 41: 615-619 (1992)). To estimate the estrogenic activity of the preparations containing SECO, 1 M solutions of the latter in ethanol (the concentration is indicated for SECO present in the solution) were added to the cell culture with achievement of the final 1 μM concentration of SECO. In each experiment on proliferation, 17β-estradiol was used as a positive standard for the estimation of the estrogenic activity and was also added as an ethanolic solution to achieve the final 1 nM concentration. To estimate the antiestrogenic activity, solutions of 17β-estradiol and the tested SECO preparations, among which there were the preparations obtained under the conditions of Examples 6, 7, and 14, were simultaneously added to the cell culture. The cell proliferation was estimated by counting the number of cells with the Coulter counter, and the results obtained are summarized in Table 2. In the test experiment (see entry 1 in Table 2), ethanol without lignan was added. Five measurements were carried out under each type of conditions.

[1] = tested on: Saccharomyces cerevisiae BKM Y-1173; assay: Survival rate of S. cerevisiae cells under the action of hydrogen peroxide (antioxidant activity); type: cell-based; details: antioxidant 5 mg/ml (for DHQ + SECO, total concentration of both), 1 h incubation
Method: Antioxidant activity of DHQ, SECO, and their complexes obtained under the conditions of Examples 6 and 7 was studied by a known method (D. J. Jamieson, “Saccharomyces cerevisiae has distinct adaptive responses to both hydrogen peroxide and menadione” J. Bacteriol. 174: 6678-6681 (1992)) on yeast Saccharomyces cerevisiae BKM Y-1173. The yeasts were grown to the mid-logarithmic growth stage on […] medium containing 2% glucose, the yeast extract, and mineral salts. The yeast cells were separated from the medium by centrifugation, two times washed with water, and incubated with hydrogen peroxide and antioxidants in an aqueous suspension (OD600 0.1-0.15) for 1 h with periodic shaking. Then the corresponding dilutions were made, the yeasts were seeded on the agarized glucose-peptone medium and cultivated for […] at 30° C., and the number of grown colonies and the survival rate of S. cerevisiae cells were counted (Table 1).

Row | SMILES | Proliferation of cells MCF-7, % (MCF-7 cells; positive standard alone, final 1 nM concentration) | Survival rate, % of test ([1]; 5 mM H2O2) | Survival rate, % of test ([1]; 10 mM H2O2) | Survival rate, % of test ([1]; Test (no H2O2)) | Proliferation of cells MCF-7, % (MCF-7 cells; antiestrogenic activity, added simultaneously with 17β-estradiol (1 nM), SECO 1 μM) | Proliferation of cells MCF-7, % (MCF-7 cells; estrogenic activity, preparation alone, final 1 μM concentration of SECO)
1 | C[C@]12CC[C@@H]3c4ccc(O)cc4CC[C@H]3[C@@H]1CC[C@@H]2O [17β-estradiol, reference compound] | 140 ± 15% |  |  |  |  | 
2 | O=C1c2c(O)cc(O)cc2O[C@H](c2ccc(O)c(O)c2)[C@H]1O [DHQ (Example 13), Dihydroquercetin] |  | 35 ± 5 % of test | 9 ± 2 % of test | 100 % of test |  | 
3 | COc1cc(C[C@@H](CO)[C@H](CO)Cc2ccc(O)c(OC)c2)ccc1O [SECO (Example 14), secoisolariciresinol] |  | 35 ± 5 % of test | 9 ± 1 % of test | 100 % of test | 115 ± 10% | 115 ± 10%
